Measured values as given in patent publication US20250197372A1 (priority 2020, published 2025).

Legend:
[1] = biological target: T1, recombinant alpha-glucosidase I (human full-length glucosidase I, Glu 1) (Homo sapiens, UniProt Q13724); test: Alpha-glucosidase I assay (Amplex Red glucose detection, synthetic trisaccharide substrate); type: biochemical; conditions: Glucosidase 1; read-out: Glu 1 IC50
T1 construct: 6-His (C); made in house; host or cells: HEK-293T cells transduced with BacMam virus (virus raised in Sf9)
T1 sequence (Q13724 1-837): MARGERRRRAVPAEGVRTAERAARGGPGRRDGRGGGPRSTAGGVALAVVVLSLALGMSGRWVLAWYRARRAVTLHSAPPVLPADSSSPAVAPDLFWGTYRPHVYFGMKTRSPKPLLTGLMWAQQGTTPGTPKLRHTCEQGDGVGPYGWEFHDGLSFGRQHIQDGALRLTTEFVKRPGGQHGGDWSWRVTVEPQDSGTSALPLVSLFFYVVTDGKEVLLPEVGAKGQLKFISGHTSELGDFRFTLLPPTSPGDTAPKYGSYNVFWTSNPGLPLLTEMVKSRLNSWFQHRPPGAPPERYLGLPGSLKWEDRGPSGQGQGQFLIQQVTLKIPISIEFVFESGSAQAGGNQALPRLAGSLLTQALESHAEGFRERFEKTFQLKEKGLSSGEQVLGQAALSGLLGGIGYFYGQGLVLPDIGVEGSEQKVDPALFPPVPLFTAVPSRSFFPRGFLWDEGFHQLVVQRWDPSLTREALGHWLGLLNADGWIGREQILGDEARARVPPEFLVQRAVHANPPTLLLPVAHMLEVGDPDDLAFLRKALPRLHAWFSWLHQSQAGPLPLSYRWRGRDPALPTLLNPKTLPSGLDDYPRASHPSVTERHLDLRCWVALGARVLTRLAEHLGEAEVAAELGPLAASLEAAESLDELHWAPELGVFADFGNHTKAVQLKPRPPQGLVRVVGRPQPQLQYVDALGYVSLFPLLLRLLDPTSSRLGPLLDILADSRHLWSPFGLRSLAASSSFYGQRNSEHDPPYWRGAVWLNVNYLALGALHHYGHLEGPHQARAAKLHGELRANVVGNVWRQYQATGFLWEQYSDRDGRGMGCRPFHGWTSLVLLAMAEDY
In short: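 Human full-length glucosidase I, His-tagged, […] and Ni-purified. Enzyme preincubated with compound dilutions 60 min at 37° C, then synthetic trisaccharide substrate 90 min at 37° C; stopped with 1.5M Tris pH 8.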

[2] = biological target: rat sucrase (partially purified alpha-glucosidase from intestinal rat powder) (Rattus norvegicus, UniProt P23739); test: Intestinal alpha-glucosidase assay, sucrose substrate (Glucose GO Kit); type: biochemical
Sequence of rat sucrase (partially purified alpha-glucosidase from intestinal rat powder) (P23739 whole entry): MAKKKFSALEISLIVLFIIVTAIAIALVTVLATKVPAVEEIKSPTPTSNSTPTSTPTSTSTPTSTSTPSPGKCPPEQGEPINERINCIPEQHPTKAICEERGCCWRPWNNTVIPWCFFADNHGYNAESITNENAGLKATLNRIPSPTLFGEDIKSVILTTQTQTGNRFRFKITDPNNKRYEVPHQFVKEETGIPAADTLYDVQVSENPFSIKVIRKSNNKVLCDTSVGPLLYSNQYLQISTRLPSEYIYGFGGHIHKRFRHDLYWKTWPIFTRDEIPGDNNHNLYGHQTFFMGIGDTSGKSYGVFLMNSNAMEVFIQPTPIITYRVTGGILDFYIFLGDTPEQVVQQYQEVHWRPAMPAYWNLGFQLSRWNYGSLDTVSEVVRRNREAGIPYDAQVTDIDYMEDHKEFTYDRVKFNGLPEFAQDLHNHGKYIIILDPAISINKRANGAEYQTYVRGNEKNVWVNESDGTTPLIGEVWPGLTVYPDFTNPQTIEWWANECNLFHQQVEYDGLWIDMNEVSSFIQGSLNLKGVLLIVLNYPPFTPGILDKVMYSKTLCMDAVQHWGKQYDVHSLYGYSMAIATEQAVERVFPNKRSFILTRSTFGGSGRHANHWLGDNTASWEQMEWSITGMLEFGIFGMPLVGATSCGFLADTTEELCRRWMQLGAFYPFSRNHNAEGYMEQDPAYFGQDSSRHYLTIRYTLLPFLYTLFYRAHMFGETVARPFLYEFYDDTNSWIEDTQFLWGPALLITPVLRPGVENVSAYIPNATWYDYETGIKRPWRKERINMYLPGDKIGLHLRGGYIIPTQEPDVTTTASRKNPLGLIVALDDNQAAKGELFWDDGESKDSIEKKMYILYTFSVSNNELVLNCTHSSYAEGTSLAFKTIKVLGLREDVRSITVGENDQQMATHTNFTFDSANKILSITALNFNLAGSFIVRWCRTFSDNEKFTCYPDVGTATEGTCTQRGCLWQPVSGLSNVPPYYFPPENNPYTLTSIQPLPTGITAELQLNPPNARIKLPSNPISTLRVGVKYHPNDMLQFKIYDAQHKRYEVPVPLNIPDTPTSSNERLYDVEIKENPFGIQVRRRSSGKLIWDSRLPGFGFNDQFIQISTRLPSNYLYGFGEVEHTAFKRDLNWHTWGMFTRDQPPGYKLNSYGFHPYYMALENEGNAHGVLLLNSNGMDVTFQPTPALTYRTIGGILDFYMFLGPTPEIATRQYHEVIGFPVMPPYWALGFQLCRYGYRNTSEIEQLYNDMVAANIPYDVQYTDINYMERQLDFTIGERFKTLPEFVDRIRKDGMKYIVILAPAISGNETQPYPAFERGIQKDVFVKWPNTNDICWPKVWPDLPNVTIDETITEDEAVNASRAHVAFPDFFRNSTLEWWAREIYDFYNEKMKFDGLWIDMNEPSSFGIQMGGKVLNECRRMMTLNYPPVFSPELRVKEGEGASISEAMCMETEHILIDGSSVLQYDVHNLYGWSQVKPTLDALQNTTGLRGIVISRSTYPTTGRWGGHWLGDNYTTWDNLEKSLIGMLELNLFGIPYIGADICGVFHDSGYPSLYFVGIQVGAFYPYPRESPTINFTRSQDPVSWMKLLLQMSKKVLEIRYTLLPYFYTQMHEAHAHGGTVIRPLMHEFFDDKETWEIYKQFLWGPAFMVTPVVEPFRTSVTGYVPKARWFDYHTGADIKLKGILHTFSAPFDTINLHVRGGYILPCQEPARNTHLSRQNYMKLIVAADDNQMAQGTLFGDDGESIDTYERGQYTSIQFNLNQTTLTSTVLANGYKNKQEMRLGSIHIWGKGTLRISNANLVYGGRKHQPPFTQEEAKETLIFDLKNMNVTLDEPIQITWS
In short: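 Enzyme from intestinal rat powder, partially purified, is exposed to compound for 60 min at 37 °C. Disaccharide substrate (maltose or sucrose respectively) then reacts 30 min at 37 °C. Heat-stopped samples are assayed for glucose, and percent inhibition versus concentration gives IC50 via 4-PL.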

With `NC(=O)c1cc(-c2ncccn2)ccc1NCCCCCCN1C[C@H](O)[C@@H](O)[C@H](O)[C@H]1CO` [Compound 1266, 5-(pyrimidin-2-yl)-2-({6-[(2R,3R,4R,5S)-3,4,5-trihydroxy-2-(hydroxymethyl)piperidin-1-yl]hexyl}amino)benzamide] the IC50 [1] was 180 nM and the IC50 [2] was 140 nM.

`[N-]=[N+]=Nc1ccc(NCCOC(=O)NCCN2C[C@H](O)[C@@H](O)[C@H](O)[C@H]2CO)c([N+](=O)[O-])c1` [Compound 1268, 2-[(4-azido-2-nitrophenyl)amino]ethyl N-{2-[(2R,3R,4R,5S)-3,4,5-trihydroxy-2-(hydroxymethyl)piperidin-1-yl]ethyl}carbamate] showed an IC50 [1] of 1990 nM and an IC50 [2] of 363 nM.

`[N-]=[N+]=Nc1ccc(NCCC(O)C(O)CCN2C[C@H](O)[C@@H](O)[C@H](O)[C@H]2CO)c([N+](=O)[O-])c1` (stereo partly drawn) [Compound 1270, (2R,3R,4R,5S)-1-{6-[(4-azido-2-nitrophenyl)amino]-3,4-dihydroxy-hexyl}-2-(hydroxymethyl)piperidine-3,4,5-triol] was tested, and the IC50 [1] was 358 nM and the IC50 [2] was 350 nM.

In the case of `[N-]=[N+]=Nc1ccc(NCCN2CC(OCCN3C[C@H](O)[C@@H](O)[C@H](O)[C@H]3CO)C2)c([N+](=O)[O-])c1` [Compound 1271, (2R,3R,4R,5S)-1-{2-[(1-{2-[(4-azido-2-nitrophenyl)amino]ethyl}azetidin-3-yl)oxy]ethyl}-2-(hydroxymethyl)piperidine-3,4,5-triol], the IC50 [1] is reported as 1070 nM and the IC50 [2] is reported as 266 nM.

In the case of `[N-]=[N+]=Nc1ccc(NCCn2cc(CCN3C[C@H](O)[C@@H](O)[C@H](O)[C@H]3CO)nn2)c([N+](=O)[O-])c1` [Compound 1272, (2R,3R,4R,5S)-1-[2-(1-{2-[(4-azido-2-nitrophenyl)amino]ethyl}-1H-1,2,3-triazol-4-yl)ethyl]-2-(hydroxymethyl)piperidine-3,4,5-triol], the IC50 [1] is reported as 1800 nM and the IC50 [2] is reported as 1880 nM.

For `[N-]=[N+]=Nc1ccc(NCCN2CCN(CCN3C[C@H](O)[C@@H](O)[C@H](O)[C@H]3CO)CC2)c([N+](=O)[O-])c1` [Compound 1273, (2R,3R,4R,5S)-1-[2-(4-{2-[(4-azido-2-nitrophenyl)amino]ethyl}piperazin-1-yl)ethyl]-2-(hydroxymethyl)piperidine-3,4,5-triol], the IC50 [1] was 13000 nM and the IC50 [2] was 21600 nM.

In the case of `[N-]=[N+]=Nc1ccc(NCCS(=O)(=O)CCCN2C[C@H](O)[C@@H](O)[C@H](O)[C@H]2CO)c([N+](=O)[O-])c1` [Compound 1274, (2R,3R,4R,5S)-1-(3-{2-[(4-azido-2-nitrophenyl)amino]ethane-sulfonyl}propyl)-2-(hydroxymethyl)piperidine-3,4,5-triol], the IC50 [1] is reported as 1550 nM and the IC50 [2] is reported as 738 nM.

`[N-]=[N+]=Nc1ccc(NCCNS(=O)(=O)NCCN2C[C@H](O)[C@@H](O)[C@H](O)[C@H]2CO)c([N+](=O)[O-])c1` [Compound 1275, (2R,3R,4R,5S)-1-{2-[({2-[(4-azido-2-nitrophenyl)amino]ethyl}sulfamoyl)amino]ethyl}-2-(hydroxymethyl)piperidine-3,4,5-triol] was tested, and the IC50 [1] was 4060 nM and the IC50 [2] was 413 nM.

With `[N-]=[N+]=Nc1ccc(NCCNC(=O)NCCN2C[C@H](O)[C@@H](O)[C@H](O)[C@H]2CO)c([N+](=O)[O-])c1` [Compound 1276, 1-{2-[(4-azido-2-nitrophenyl)amino]ethyl}-3-{2-[(2R,3R,4R,5S)-3,4,5-trihydroxy-2-(hydroxymethyl)piperidin-1-yl]ethyl}urea] the IC50 [1] was 2440 nM and the IC50 [2] was 316 nM.

In the case of `Nc1ccc(NCCCCCCCCN2C[C@H](O)[C@@H](O)[C@H](O)[C@H]2CO)c([N+](=O)[O-])c1Cl` [Compound 1277, (2R,3R,4R,5S)-1-{8-[(4-amino-3-chloro-2-nitrophenyl)amino]octyl} 2-(hydroxymethyl)piperidine-3,4,5-triol], the IC50 [1] is reported as 166 nM and the IC50 [2] is reported as 133 nM.

For `CC#Cc1ccc(NCCCCCCN2C[C@H](O)[C@@H](O)[C@H](O)[C@H]2CO)c([N+](=O)[O-])c1` [Compound 1290, (2R,3R,4R,5S)-2-(hydroxymethyl)-1-(6-{[2-nitro-4-(prop-1-yn-1-yl)phenyl]amino}hexyl)piperidine-3,4,5-triol], the IC50 [1] was 36 nM and the IC50 [2] was less than 10 nM.

`[N-]=[N+]=Nc1ccc(NCCCCCCN2C[C@H](O)[C@@H](O)[C@H](O)[C@H]2CO)c(C(N)=O)c1` [Compound 1296, 5-azido-2-({6-[(2R,3R,4R,5S)-3,4,5-trihydroxy-2-(hydroxymethyl)piperidin-1-yl]hexyl}amino)benzamide] was tested, and the IC50 [1] was 142 nM and the IC50 [2] was 494 nM.

Compound `[N-]=[N+]=Nc1ccc(NCCCCCCN2C[C@H](O)[C@@H](O)[C@H](O)[C@H]2CO)c(C(=O)O)c1` [Compound 1297, 5-azido-2-({6-[(2R,3R,4R,5S)-3,4,5-trihydroxy-2-(hydroxymethyl)piperidin-1-yl]hexyl}amino)benzoic acid] has an IC50 [1] of 1300 nM and an IC50 [2] of 800 nM.

Compound `N#CCc1ccc(NCCCCCCN2C[C@H](O)[C@@H](O)[C@H](O)[C@H]2CO)c([N+](=O)[O-])c1` [Compound 1299, 2-[3-nitro-4-({6-[(2R,3R,4R,5S)-3,4,5-trihydroxy-2-(hydroxymethyl)piperidin-1-yl]hexyl}amino)phenyl]acetonitrile] has an IC50 [1] of 189 nM and an IC50 [2] of 37 nM.

`N#Cc1ccc(NCCCCCCN2C[C@H](O)[C@@H](O)[C@H](O)[C@H]2CO)c([N+](=O)[O-])c1` [Compound 1304, 3-nitro-4-({6-[(2R,3R,4R,5S)-3,4,5-trihydroxy-2-(hydroxymethyl)piperidin-1-yl]hexyl}amino)benzonitrile] gave an IC50 [1] of 178 nM and an IC50 [2] of 60 nM.

`COc1ccc(-c2ccc(CCCN3C[C@H](O)[C@@H](O)[C@H](O)[C@H]3CO)cc2)cc1` [Compound 1305, (2R,3R,4R,5S)-2-(hydroxymethyl)-1-(3-{4′-methoxy-[1,1′-biphenyl]-4-yl}propyl)piperidine-3,4,5-triol] was tested, and the IC50 [1] was 2830 nM and the IC50 [2] was 1010 nM.

In the case of `COc1ccc(-c2ccc(CN3C[C@H](O)[C@@H](O)[C@H](O)[C@H]3CO)cc2)cc1` [Compound 1306, (2R,3R,4R,5S)-2-(hydroxymethyl)-1-({4′-methoxy-[1,1′-biphenyl]-4-yl}methyl)piperidine-3,4,5-triol], the IC50 [1] is reported as 745 nM and the IC50 [2] is reported as less than 10 nM.

`COCCc1ccc(CCCN2C[C@H](O)[C@@H](O)[C@H](O)[C@H]2CO)cc1` [Compound 1308, (2R,3R,4R,5S)-2-(hydroxymethyl)-1-{3-[4-(2-methoxyethyl)phenyl]propyl}piperidine-3,4,5-triol] showed an IC50 [1] greater than 100000 nM and an IC50 [2] of 331 nM.

`COc1ccc(CCCCCCCN2C[C@H](O)[C@@H](O)[C@H](O)[C@H]2CO)cc1` [Compound 1309, (2R,3R,4R,5S)-2-(hydroxymethyl)-1-[7-(4-methoxyphenyl)heptyl]piperidine-3,4,5-triol] showed an IC50 [1] of 700 nM and an IC50 [2] of 155 nM.

For `COc1ccc(CCCCCN2C[C@H](O)[C@@H](O)[C@H](O)[C@H]2CO)cc1` [Compound 1310, (2R,3R,4R,5S)-2-(hydroxymethyl)-1-[5-(4-methoxyphenyl)pentyl]piperidine-3,4,5-triol], the IC50 [1] was 678 nM and the IC50 [2] was 371 nM.

`OC[C@@H]1[C@@H](O)[C@H](O)[C@@H](O)CN1CCCCCCCCC1CNCCO1` (stereo partly drawn) [Compound 1311, (2R,3R,4R,5S)-2-(hydroxymethyl)-1-[8-(morpholin-2-yl)octyl]piperidine-3,4,5-triol] gave an IC50 [1] of 1760 nM and an IC50 [2] of 1010 nM.

`Cc1cc(NCc2ccc(CN3C[C@H](O)[C@@H](O)[C@H](O)[C@H]3CO)cc2)cc(-c2ncco2)c1` [Compound 1315, (2R,3R,4R,5S)-2-(hydroxymethyl)-1-{[4-({[3-methyl-5-(1,3-oxazol-2-yl)phenyl]amino}methyl)phenyl]methyl}piperidine-3,4,5-triol] showed an IC50 [1] of 40 nM and an IC50 [2] of 44 nM.

`Cc1cc(NCc2ccc(CN3C[C@H](O)[C@@H](O)[C@H](O)[C@H]3CO)cc2)cc(-n2nccn2)c1` [Compound 1316, (2R,3R,4R,5S)-2-(hydroxymethyl)-1-{[4-({[3-methyl-5-(2H-1,2,3-triazol-2-yl)phenyl]amino}methyl)phenyl]methyl}piperidine-3,4,5-triol] showed an IC50 [1] of 16 nM and an IC50 [2] of 14 nM.

Work on `Cc1cc(NCc2ccc(CN3C[C@H](O)[C@@H](O)[C@H](O)[C@H]3CO)cc2)cc(-c2ccco2)c1` [Compound 1317, (2R,3R,4R,5S)-1-{[4-({[3-(furan-2-yl)-5-methylphenyl]amino}methyl)phenyl]methyl}-2-(hydroxymethyl)piperidine-3,4,5-triol] yielded an IC50 [1] of less than 1 nM and an IC50 [2] of less than 1 nM.
